Experimental data published in patent publication US20150051231A1, “SYNERGISTIC COMBINATIONS OF TRIAZOLES, STROBILURINS AND BENZIMIDAZOLES, USES, FORMULATIONS, PRODUCTION PROCESSES AND APPLICATIONS USING THE SAME” (FMC Quimica do Brasil Ltda., priority 2010, published 2015).
Like-named read-outs stand apart in the source and are kept apart here.

Legend:
Assay type in all cases: in vivo
[1] = system: Phakopsora pachyrhizi Sydow; test: Field trial, interactions of fungicides for control of Asian soybean rust, flutriafol series (Tables 2 and 4), Rondonópolis-MT; details: for Control (%) Lower canopy, obtained by AUDPC / Control (%) Upper canopy, obtained by AUDPC: rates g/há ai: Kresoxim-methyl 125, Azoxystrobin 30, Flutriafol 62.5, Flut+Carb+Kresoxim 62.5 + 200 + 125, Flut+Carb+Azoxystrobin 62.5 + 200 + 30, Flut+Carb 62.5 + 200
Method: (§1) A study was prepared to analyze the interaction effect using the multiplicative model of distribution proposed by Colby (1967), using Equation 1 below to calculate the expected response: […]
(§2) wherein E is the expected reduction in disease development (such as the reduction in the percentage of expected control or the reduction in the area under the disease-progress curve), and x and y represent the reduction in disease development achieved by treatment with fungicide x and y, respectively.
Regarding the study of the interaction effect for the association of flutriafol+carbendazim+azoxystrobin and flutriafol+carbendazim+kresoxim-methyl, the model proposed by Colby was used.

Colletotrichum truncatum = test: Anthracnose severity in soybean 14 days after the third application (Table 5), Rondonópolis-MT; details: for Severity (%) C. truncatum: 14 days after the third application; for control of anthracnose (C. truncatum) in soybean crops, in words: isolated use, PrioriXtra under conditions of high disease severity
Text: (§3) In addition to these benefits, the association of the three fungicides—tebuconazole, carbendazim and azoxystrobin or tebuconazole, carbendazim and kresoxim-methyl provides greater safety regarding protection against the emergence of fungi resistant to fungicides and improved control spectrum.

Corynespora cassiicola = test: Target spot severity in soybean 14 days after the third application (Table 5), Rondonópolis-MT; details: for Severity (%) C. cassiicola: 14 days after the third application; for control of target spot (C. cassiicola) in soybean crops, in words: isolated use, PrioriXtra under conditions of high disease severity
Text: as §3

[2] = system: Phakopsora pachyrhizi Sydow; details: three preventive applications from V9
Method: This study was conducted to evaluate the efficacy of the products in the control of Asian rust. The start of preventive applications in V9, the second application was made 20 days after the first (in R4) and the third application was made 15 days after the second. Emulsifiable mineral oil Assist was added, at the dose of 0.5% v/v in all treatments, except for the PrioriXtra treatments, in which 0.5% v/v Nimbus was added, and Fox, in which Aureo was added at the dose of 0.4 L/ha.

[3] = system: Phakopsora pachyrhizi Sydow; details: three preventive applications from R1
Method: (§4) This study was conducted to evaluate the efficacy of the products in the control of Asian soybean rust (Valiosa). Preventive applications started in R1, the second application was made 19 days after the first (in R5.1) and the third application was made 15 days after the second (in R5.5). Emulsifiable mineral oil Assist was added at the dose of 0.5% v/v in all treatments, except for the PrioriXtra treatments, in which 0.5% v/v Nimbus was added.

[4] = system: Phakopsora pachyrhizi Sydow; test: Field trial, interactions of fungicides for control of Asian soybean rust, tebuconazole series (Tables 1 and 3), Rondonópolis-MT; details: for control of rust (Phakopsora pachyrhizi Sydow) in soybean crops, in words: isolated use; for Control (%) Lower canopy, obtained by AUDPC / Control (%) Upper canopy, obtained by AUDPC: rates g/ha ai: Kresoxim-methyl 125, Azoxystrobin 30, Tebuconazole 100, Teb+Carb+Kresoxim 100 + 200 + 125, Teb+Carb+Azoxystrobin 100 + 200 + 30, Teb+Carb 100 + 200
Text: (See Table 1 below), carbendazim even at a dose of 250 g/ha ai, and tebuconazole at the dose of 100 g/ha ai.
The association of azoxystrobin with the tebuconazole+carbendazim mixture (BF 488) provided a control efficacy gain and a residual control effect even under high pressure of Asian rust. […] The addition of azoxystrobin from 6 g/ha ai in the mixture of tebuconazole+carbendazim (100+200 g/ha ai, respectively) has already reflected in rust efficacy gain, providing control similar to the efficacy standard of azoxystrobin+cyproconazole (60+24 g/ha ai, respectively), and this product is marketed by Syngenta as PrioriXtra®. The addition of azoxystrobin in doses of 18, 24 and 30 g/ha ai together with tebuconazole+carbendazim was effective for obtaining yields higher than the market standard containing 60 g/ha of azoxystrobin.
The association of kresoxim-methyl with the tebuconazole+carbendazim mixture (BF 452) provided a control efficacy gain and a residual control effect even under high pressure of Asian rust. […] The addition of kresoxim-methyl from 75 g/ha ai in the mixture of tebuconazole+carbendazim (100+200 g/ha ai, respectively) has already reflected in rust efficacy gain, providing control similar to the efficacy standard of azoxystrobin+cyproconazole (60+24 g/ha ai, respectively), and this product is marketed by Syngenta as PrioriXtra®.
as §1, §2
The possible interaction responses are: • a) antagonism, which is characterized by joint action of two fungicides showing the response of a test organism in their combination that is lower than the expected response, obtained by appropriate reference models, as proposed by Colby (1967); • b) synergism, which is the cooperative action of two fungicides showing a response in the test organism on the joint application that is higher than the expected response obtained by appropriate reference models, and • c) additive, which occurs when two fungicides react by presenting a response in the test organism on the joint application that is equal to the expected response obtained by appropriate reference models.
To use the model proposed by Colby, the association tebuconazole+carbendazim (100+200, respectively) was established for a comparative test with azoxystrobin or kresoxim-methyl and a response of the type of interaction (see Table 3 below).

[5] = system: Phakopsora pachyrhizi Sydow; details: three preventive applications from R1; remark: listed apart in the source
Method: as §4, with “(Favorita).” for “(Valiosa).”, “R4)” for “R5.1)”, “R5.3).” for “R5.5).”, “added. […] The efficacy of BF 452 and BF 465 is consistent, reducing the disease throughout the soybean plant canopy.” for “added.”

[6] = system: Phakopsora pachyrhizi Sydow; test: Field trial, soybean rust AUDPC and yield (Table 6), Rondonópolis-MT
Text: (§5) The association of azoxystrobin with the tebuconazole+carbendazim mixture provided high control efficacy of rust (see Table 6 below). […] The association of the three fungicides tebuconazole, carbendazim and azoxystrobin provides effective control of target spot (Corynespora cassiicola) and anthracnose (Colletotrichum truncatum) (see Table 5 above), and contains fungicides with three modes of action—carbendazim (benzimidazole)—acting on the integrity of tubulin; tebuconazole (triazole)—sterol synthesis inhibitors; azoxystrobin (strobilurin)—inhibits mitochondrial respiration.
as §5, with “of kresoxim-methyl” for “of azoxystrobin”, “6 above).” for “6 below).”, “and kresoxim-methyl” for “and azoxystrobin”, “[…] (strobilurin)-inhibits” for “azoxystrobin (strobilurin)—inhibits”

[7] = system: Phakopsora pachyrhizi Sydow; details: three preventive applications from R1; remark: listed apart in the source
Method: This study was conducted to evaluate the efficacy of the products in the control of Asian soybean rust. Preventive applications started in R1, with the second application occurring 20 days after the first application and the third application 15 days after the second. Emulsifiable mineral oil Assist was added, at the dose of 0.5% v/v in all treatments, except for the PrioriXtra treatments, in which 0.5% v/v Nimbus was added, and Fox, in which Aureo was added at the dose of 0.4 L/ha.

Q: With `OC(Cn1cncn1)(c1ccc(F)cc1)c1ccccc1F` (racemic) [flutriafol, (RS)-2,4′-difluoro-α-(1H-1,2,4-triazol-1-ylmethyl)benzhydryl alcohol] as the compound, how does the “control of rust (Phakopsora pachyrhizi Sydow) in soybean crops, in words” value (“control of rust” below) ([1]; isolated use) read?
A: Its value is “not effective in controlling rust”.

Q: And the “AUPDC* Lower Canopy” value ([1]; rate 62.5 g/ha a.i.)?
A: The value was 1312.6.

Q: And the “AUPDC* Upper Canopy” value ([1]; rate 62.5 g/ha a.i.)?
A: Its value is 1097.2.

Q: What about the Productivity ([1]; rate 62.5 g/ha a.i.) of the same compound?
A: The Productivity was 1578.2 kg/ha.

Q: What about the “Control (%) Lower canopy, obtained by AUDPC” value (“Control (%) Lower canopy” for short) [1] of the same compound?
A: The value was 24.0%.

Q: What about the “Control (%) Upper canopy, obtained by AUDPC” value (shortened to “Control (%) Upper canopy”) [1] of the same compound?
A: The value was 26.5%.

Q: And the “Severity (%) C. truncatum” value (Colletotrichum truncatum; rate 62.5 g/ha a.i.)?
A: Its value is 31.3%.

Q: What about the “control of anthracnose (C. truncatum) in soybean crops, in words” value (Colletotrichum truncatum) of the same compound?
A: The value was “not effective”.

Q: What about the “Severity (%) C. cassiicola” value (Corynespora cassiicola; rate 62.5 g/ha a.i.) of the same compound?
A: The value was 22.5%.

Q: And the “control of target spot (C. cassiicola) in soybean crops, in words” value (Corynespora cassiicola)?
A: Its value is “not effective”.

Q: Which results are given for `CC(C)(C)C(O)(CCc1ccc(Cl)cc1)Cn1cncn1` (racemic) [tebuconazole, (RS)-1-p-chlorophenyl-4,4-dimethyl-3-(1H-1,2,4-triazol-1-ylmethyl)pentan-3-ol]?
A: efficacy in controlling soybean rust, in words [2]: not effective in controlling soybean rust; efficacy in controlling soybean rust, in words [3]: not effective in controlling soybean rust; control of rust (Phakopsora pachyrhizi Sydow) in soybean crops, in words [4]: not effective in controlling rust; AUPDC* Lower Canopy ([4]; rate 100 g/ha a.i.): 896.0; AUPDC* Upper Canopy ([4]; rate 100 g/ha a.i.): 427.0; Productivity ([4]; rate 100 g/ha a.i.): 2152.0 kg/ha; Control (%) Lower canopy, obtained by AUDPC [4]: 32%; Control (%) Upper canopy, obtained by AUDPC [4]: 71%; efficacy in controlling soybean rust, in words [5]: not effective in controlling soybean rust; AUPDC* Lower Canopy ([6]; rate 100 g/ha a.i.): 747.4; AUPDC* Upper Canopy ([6]; rate 100 g/ha a.i.): 227.5; Productivity ([6]; rate 100 g/ha a.i.): 2570.8 kg/ha; Severity (%) C. truncatum (Colletotrichum truncatum; rate 100 g/ha a.i.): 30.0%; control of anthracnose (C. truncatum) in soybean crops, in words (Colletotrichum truncatum): not effective; efficacy in controlling soybean rust, in words [7]: not effective in controlling soybean rust; Severity (%) C. cassiicola (Corynespora cassiicola; rate 100 g/ha a.i.): 23.5%; control of target spot (C. cassiicola) in soybean crops, in words (Corynespora cassiicola): not effective

Q: `COC(=O)Nc1nc2ccccc2[nH]1` [carbendazim] was tested. Which “AUPDC* Lower Canopy” value ([1]; rate 250 g/ha a.i.) did it give?
A: The value was 1576.3.

Q: What about the “AUPDC* Upper Canopy” value ([1]; rate 250 g/ha a.i.) of the same compound?
A: Its value is 1317.0.

Q: And the Productivity ([1]; rate 250 g/ha a.i.)?
A: The Productivity was 1293.0 kg/ha.

Q: What about the “control of rust” value [4] of the same compound?
A: Its value is “not effective in controlling rust”.

Q: What about the “AUPDC* Lower Canopy” value ([4]; rate 250 g/ha a.i.) of the same compound?
A: Its value is 261.0.

Q: And the “AUPDC* Upper Canopy” value ([4]; rate 250 g/ha a.i.)?
A: Its value is 1148.0.

Q: And the Productivity ([4]; rate 250 g/ha a.i.)?
A: The Productivity was 1324.0 kg/ha.

Q: What about the “AUPDC* Lower Canopy” value ([6]; rate 250 g/ha a.i.) of the same compound?
A: Its value is 361.8.

Q: What about the “AUPDC* Upper Canopy” value ([6]; rate 250 g/ha a.i.) of the same compound?
A: The value was 247.5.

Q: And the Productivity ([6]; rate 250 g/ha a.i.)?
A: The Productivity was 1323.7 kg/ha.

Q: How did the “AUPDC* Lower Canopy” value ([1]; rate 125 g/ha a.i.) turn out when `CO/N=C(/C(=O)OC)c1ccccc1COc1ccccc1C` [kresoxim-methyl, methyl(E)-methoxyimino[α-(o-tolyloxy)-o-tolyl]acetate] was run?
A: Its value is 1415.8.

Q: And the “AUPDC* Upper Canopy” value ([1]; rate 125 g/ha a.i.)?
A: Its value is 1261.3.

Q: And the Productivity ([1]; rate 125 g/ha a.i.)?
A: The Productivity was 1479.5 kg/ha.

Q: What about the “Control (%) Lower canopy” value [1] of the same compound?
A: The value was 18.0%.

Q: And the “Control (%) Upper canopy” value [1]?
A: Its value is 15.5%.

Q: And the “control of rust” value [4]?
A: The value was “not effective in controlling rust”.

Q: What about the “AUPDC* Lower Canopy” value ([4]; rate 125 g/ha a.i.) of the same compound?
A: Its value is 1146.0.

Q: What about the “AUPDC* Upper Canopy” value ([4]; rate 125 g/ha a.i.) of the same compound?
A: The value was 978.0.

Q: And the Productivity ([4]; rate 125 g/ha a.i.)?
A: The Productivity was 1349.0 kg/ha.

Q: And the “Control (%) Lower canopy” value [4]?
A: Its value is 13%.

Q: What about the “Control (%) Upper canopy” value [4] of the same compound?
A: Its value is 34%.

Q: And the “AUPDC* Lower Canopy” value ([6]; rate 125 g/ha a.i.)?
A: The value was 1245.9.

Q: What about the “AUPDC* Upper Canopy” value ([6]; rate 125 g/ha a.i.) of the same compound?
A: Its value is 1074.1.

Q: And the Productivity ([6]; rate 125 g/ha a.i.)?
A: The Productivity was 1848.5 kg/ha.

Q: And the “Severity (%) C. truncatum” value (Colletotrichum truncatum; rate 125 g/ha a.i.)?
A: The value was 19.5%.

Q: And the “control of anthracnose (C. truncatum) in soybean crops, in words” value (Colletotrichum truncatum)?
A: The value was “not effective”.

Q: What about the “Severity (%) C. cassiicola” value (Corynespora cassiicola; rate 125 g/ha a.i.) of the same compound?
A: The value was 22.3%.

Q: And the “control of target spot (C. cassiicola) in soybean crops, in words” value (Corynespora cassiicola)?
A: Its value is “not effective”.
